These results are taken from ChEMBL document CHEMBL5321242, “Design and synthesis of 4-acetoxypentanamide derivatives of spliceostatin A and their biological evaluation towards prostate cancer treatment” (Bioorg Med Chem Lett, 2023).

In brackets after ≈: the same amount, converted by molar mass.

Data set [1] in a line: Metabolic stability in mouse liver microsome assessed as parent compound remaining measured at 10 mins. Particulars: liver microsomes, read-out: Stability. It is filed as ADME.
Data set [2] in a line: Apparent permeability of the compound by PAMPA assay. It is filed as ADME. A general note: In PAMPA a lipid-coated filter parts donor from acceptor wells.
The nature of data set [3]: Metabolic stability in human liver microsome assessed as parent compound remaining measured at 60 mins. Particulars: liver microsomes, read-out: Stability. It is filed as ADME. (Liver microsomes are vesicles of endoplasmic reticulum, rich in cytochrome P450 enzymes.)
The nature of data set [4]: Partition coefficient, logD of the compound. It is filed as physicochemical. Conditions: octanol/water.
Data set [5] in a line: Metabolic stability in mouse liver microsome assessed as parent compound remaining measured at 60 mins. It is filed as ADME. Particulars: liver microsomes, read-out: Stability.
Data set [6] in a line: Solubility of the compound in PBS buffer. It is filed as physicochemical.
The nature of data set [7]: Metabolic stability in human liver microsome assessed as parent compound remaining measured at 10 mins. It is filed as ADME. Conditions: liver microsomes, read-out: Stability.
Another data set relates to PNT2. In words: Cytotoxicity against human PNT2 cells assessed as reduction in cell viability upto 200 nM by MTS assay. It is filed as toxicity, cell-based. Particulars: pnt2, 0.2 µM. For orientation: Tetrazolium assays rely on reduction of a dye to a coloured formazan, in cell work by metabolically active cells.
The nature of data set [8]: Inhibition of AR-V7 expression in human 22Rv1 cells. It is filed as functional, cell-based, CWR22R.

Broadly, the Papp is the rate of passage across a membrane or cell layer, normalised by area and donor concentration. Broadly, the logD is lipophilicity at a set pH, counting ionised and neutral species. A lower logD goes with a more hydrophilic compound. For orientation: solubility means the dissolved amount per volume that the medium holds. Low readings indicate little dissolved substance, high ones much dissolved substance. Take `CC(=O)O[C@@H](C)CCC(=O)N[C@@H]1C[C@H](C)[C@H](C/C=C(C)/C=C/[C@H]2OCC[C@@]3(CO3)[C@@H]2O)O[C@@H]1C`: the remaining at 10 min came to 5% in data set [1] and 6% in data set [7]. For the same molecule, the apparent permeability coefficient (Papp) in [2] is 8.5 ×10⁻⁶ cm/s. The remaining at 1 h in data set [3] and in data set [5] was 0% in each case. The same molecule showed a log distribution coefficient (logD) in [4] of 3.1. The solubility in data set [6] is at least 95 µM. Besides, the Activity result with PNT2 is listed as “Non-Toxic”.

As to `CC(C)NCC(O)COc1cccc2ccccc12` (configuration not stated) [PROPRANOLOL], in data set [2], the apparent permeability coefficient (Papp) was determined as 3.5 ×10⁻⁶ cm/s.

One may read the IC50 as the concentration needed to halve the response being measured. A high value points to lower potency. For the molecule `CO[C@]1(C)C[C@@]2(CO2)[C@H](O)[C@@H](/C=C/C(C)=C/C[C@@H]2O[C@H](C)[C@H](NC(=O)/C=C\[C@H](C)OC(C)=O)C[C@@H]2C)O1`, the remaining at 10 min in [1] was 2.5%; in data set [7] it was 32%. The results for the remaining at 1 h in [3] and in [5] were 0.5% and 0%, respectively. The molecule further registered an IC50 in [8] of 0.6 nM. Further, the logD in data set [4] stood at 3.8. In data set [6], this molecule displayed a solubility of at least 95 µM.

On to `CC(=O)O[C@@H](C)/C=C(/C)C(=O)N[C@@H]1C[C@H](C)[C@H](C/C=C(C)/C=C/[C@H]2OCC[C@@]3(CO3)[C@@H]2O)O[C@@H]1C`, for which the remaining at 10 min in data set [1] worked out at 0%; in [7] it was 1%. In data set [2], the apparent permeability coefficient (Papp) amounted to 18.5 ×10⁻⁶ cm/s. Besides, the remaining at 1 h in data set [3] and in data set [5] was 0% in each case. The same molecule registered a logD in [4] of 3.6. For the same molecule, in data set [6], the solubility is at least 95 µM. Also, the Activity entry in the data set on PNT2 is “Non-Toxic”.

Consider `CC(=O)O[C@@H](C)/C=C/C(=O)N[C@@H]1C[C@H](C)[C@H](C/C=C(C)/C=C/[C@H]2OCC[C@@]3(CO3)[C@@H]2O)O[C@@H]1C`, for which the figures for the remaining at 10 min in data set [1] and in data set [7] were 27% and 0%, respectively. Moreover, the Papp in data set [2] was 11.3 ×10⁻⁶ cm/s. The remaining at 1 h in data set [3] and in data set [5] was 0% throughout. Also, in data set [4], the logD is 3.2. Moreover, in data set [6], the concentration in solution (solubility) came to 94.7 µM (≈ 45.2 µg/mL).

For `CC(=O)O[C@@H](C)/C=C\C(=O)N[C@@H]1C[C@H](C)[C@H](C/C=C(C)/C=C/[C@H]2OCC[C@@]3(CO3)[C@@H]2O)O[C@@H]1C`, the remaining at 10 min in data set [1] came to 0.3%; in [7], 1.7%. The remaining at 1 h in [3] is 0%; in data set [5], 0.1%. For the same molecule, in data set [4], the log distribution coefficient (logD) is 3.4. In data set [6], this molecule gave a solubility of 95 µM (≈ 45.4 µg/mL).
